Data published in PMC11345841, “Exploring 2-Sulfonylpyrimidine Warheads as Acrylamide Surrogates for Targeted Covalent Inhibition: A BTK Story” (Journal of Medicinal Chemistry, 2024).
Read-outs that look alike come from different tables or passages of the source.

Tests used:
EPHB4 = molecular target: T1, EPHB4 (Homo sapiens, UniProt P54760); experiment: KINOMEscan ScanTK; format: binding
T1 construct: purchased Eurofins DiscoverX KINOMEscan (scanTK)
T1 sequence (P54760 16-987): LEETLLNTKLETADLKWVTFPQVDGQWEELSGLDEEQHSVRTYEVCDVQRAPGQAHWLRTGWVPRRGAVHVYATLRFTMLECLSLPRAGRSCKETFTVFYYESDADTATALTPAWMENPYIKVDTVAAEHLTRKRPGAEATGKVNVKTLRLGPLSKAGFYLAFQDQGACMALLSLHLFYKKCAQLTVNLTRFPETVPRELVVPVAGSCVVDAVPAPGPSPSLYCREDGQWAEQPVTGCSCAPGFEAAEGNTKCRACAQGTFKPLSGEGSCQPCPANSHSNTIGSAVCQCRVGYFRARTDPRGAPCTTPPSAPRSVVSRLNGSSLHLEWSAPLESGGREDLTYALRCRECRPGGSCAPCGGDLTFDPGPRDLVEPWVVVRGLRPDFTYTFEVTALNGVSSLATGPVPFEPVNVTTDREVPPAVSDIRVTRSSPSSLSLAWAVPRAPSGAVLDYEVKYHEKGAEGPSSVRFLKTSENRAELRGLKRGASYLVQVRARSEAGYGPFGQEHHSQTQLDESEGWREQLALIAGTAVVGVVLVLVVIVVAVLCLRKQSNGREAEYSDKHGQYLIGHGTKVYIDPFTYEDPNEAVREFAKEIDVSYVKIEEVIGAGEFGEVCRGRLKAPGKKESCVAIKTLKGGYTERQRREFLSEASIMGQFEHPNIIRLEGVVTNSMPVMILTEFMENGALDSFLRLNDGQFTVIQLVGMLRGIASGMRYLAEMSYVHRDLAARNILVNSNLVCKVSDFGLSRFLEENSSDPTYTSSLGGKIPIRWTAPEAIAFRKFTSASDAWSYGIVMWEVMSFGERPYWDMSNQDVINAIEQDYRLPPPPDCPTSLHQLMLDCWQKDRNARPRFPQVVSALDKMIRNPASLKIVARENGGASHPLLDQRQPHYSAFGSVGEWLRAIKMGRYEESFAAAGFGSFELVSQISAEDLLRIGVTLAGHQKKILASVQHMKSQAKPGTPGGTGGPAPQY

[1] = molecular target: T2, TYK2(JH2domain-pseudokinase) (Homo sapiens, UniProt P29597); experiment: KINOMEscan ScanTK; format: binding; conditions: for difference in %Control versus Ib at 1 µM: read-out: % difference (compound - Ib %Control)
T2 construct: TYK2(JH2domain-pseudokinase); purchased Eurofins DiscoverX KINOMEscan (scanTK)

RET(V804M) = molecular target: T3, RET(V804M) (Homo sapiens, UniProt P07949, V804M); experiment: KINOMEscan ScanTK; format: binding
T3 construct: purchased Eurofins DiscoverX KINOMEscan (scanTK)

TXK = molecular target: T4, TXK (Homo sapiens, UniProt P42681); experiment: KINOMEscan ScanTK; format: binding
T4 construct: purchased Eurofins DiscoverX KINOMEscan (scanTK)
T4 sequence (P42681 1-527): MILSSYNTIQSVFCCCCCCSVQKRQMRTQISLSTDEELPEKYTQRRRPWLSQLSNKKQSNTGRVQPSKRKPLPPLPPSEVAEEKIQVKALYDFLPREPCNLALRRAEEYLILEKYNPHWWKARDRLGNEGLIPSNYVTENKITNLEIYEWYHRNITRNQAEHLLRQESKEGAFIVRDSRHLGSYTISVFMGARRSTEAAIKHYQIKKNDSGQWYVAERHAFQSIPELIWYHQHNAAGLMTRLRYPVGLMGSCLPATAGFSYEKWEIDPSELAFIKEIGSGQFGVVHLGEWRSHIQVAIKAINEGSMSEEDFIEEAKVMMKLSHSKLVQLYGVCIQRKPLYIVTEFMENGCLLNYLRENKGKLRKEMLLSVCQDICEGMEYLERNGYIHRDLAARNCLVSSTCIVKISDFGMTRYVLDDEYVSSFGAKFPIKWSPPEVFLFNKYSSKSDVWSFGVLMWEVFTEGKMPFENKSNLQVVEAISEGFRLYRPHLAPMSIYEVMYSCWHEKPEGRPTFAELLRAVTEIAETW

FLT3(ITD,D835V) = experiment: KINOMEscan ScanTK; format: binding; conditions: for %Control / % difference (compound - Ib %Control): @1000nM
ALK(L1196M) = molecular target: T5, ALK(L1196M) (Homo sapiens, UniProt Q9UM73, L1196M); experiment: KINOMEscan ScanTK; format: binding
T5 construct: purchased Eurofins DiscoverX KINOMEscan (scanTK)

[2] = molecular target: T6, ABL1(F317L)-nonphosphorylated (Homo sapiens, UniProt P00519, F317L); experiment: KINOMEscan ScanTK; format: binding
T6 construct: purchased Eurofins DiscoverX KINOMEscan (scanTK)

[3] = molecular target: T7, EGFR(L747-E749del, A750P) (Homo sapiens, UniProt P00533, A750P/DEL747-749); experiment: KINOMEscan ScanTK; format: binding
T7 construct: purchased Eurofins DiscoverX KINOMEscan (scanTK)

EGFR(G719C) = molecular target: T8, EGFR(G719C) (Homo sapiens, UniProt P00533, G719C); experiment: KINOMEscan ScanTK; format: binding
T8 construct: purchased Eurofins DiscoverX KINOMEscan (scanTK)

wild-type BTK = wild-type BTK (Homo sapiens, UniProt Q06187); experiment: NanoBRET target engagement assay in HEK293 cells; conditions: for NanoBRET IC50: HEK293 cells, 1 h treatment
RET(V804L) = molecular target: T9, RET(V804L) (Homo sapiens, UniProt P07949, V804L); experiment: KINOMEscan ScanTK; format: binding
T9 construct: purchased Eurofins DiscoverX KINOMEscan (scanTK)
T9 sequence (P07949 29-1114 V804L): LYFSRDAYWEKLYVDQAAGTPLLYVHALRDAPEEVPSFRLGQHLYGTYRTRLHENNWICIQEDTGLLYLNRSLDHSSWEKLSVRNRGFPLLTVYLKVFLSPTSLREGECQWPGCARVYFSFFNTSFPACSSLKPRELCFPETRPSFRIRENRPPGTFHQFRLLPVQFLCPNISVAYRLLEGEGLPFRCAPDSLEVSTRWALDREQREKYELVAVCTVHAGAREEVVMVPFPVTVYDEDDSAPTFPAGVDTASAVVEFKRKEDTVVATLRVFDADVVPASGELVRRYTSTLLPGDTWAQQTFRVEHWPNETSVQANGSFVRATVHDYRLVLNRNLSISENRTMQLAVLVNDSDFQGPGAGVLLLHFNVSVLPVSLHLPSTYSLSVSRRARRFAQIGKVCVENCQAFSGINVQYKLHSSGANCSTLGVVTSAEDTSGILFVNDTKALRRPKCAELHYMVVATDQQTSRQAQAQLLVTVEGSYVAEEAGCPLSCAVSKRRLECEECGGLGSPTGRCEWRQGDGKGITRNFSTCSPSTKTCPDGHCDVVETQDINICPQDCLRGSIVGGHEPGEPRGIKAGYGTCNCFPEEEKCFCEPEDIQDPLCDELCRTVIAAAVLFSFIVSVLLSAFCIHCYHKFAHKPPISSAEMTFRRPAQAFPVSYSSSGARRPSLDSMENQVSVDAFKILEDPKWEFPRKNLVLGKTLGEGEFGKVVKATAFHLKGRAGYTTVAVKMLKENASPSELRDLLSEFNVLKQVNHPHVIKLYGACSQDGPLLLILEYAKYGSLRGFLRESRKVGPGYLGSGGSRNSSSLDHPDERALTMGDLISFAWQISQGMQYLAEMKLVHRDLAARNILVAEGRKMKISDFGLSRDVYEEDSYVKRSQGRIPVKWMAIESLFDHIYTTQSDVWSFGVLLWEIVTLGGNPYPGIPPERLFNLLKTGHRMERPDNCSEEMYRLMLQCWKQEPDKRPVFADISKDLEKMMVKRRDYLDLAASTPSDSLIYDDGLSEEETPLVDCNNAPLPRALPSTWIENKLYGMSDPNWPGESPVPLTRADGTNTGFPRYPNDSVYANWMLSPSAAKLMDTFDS

T7 sequence (P00533 with tags, fused parts or gaps DEL747-749/A750P limits assumed): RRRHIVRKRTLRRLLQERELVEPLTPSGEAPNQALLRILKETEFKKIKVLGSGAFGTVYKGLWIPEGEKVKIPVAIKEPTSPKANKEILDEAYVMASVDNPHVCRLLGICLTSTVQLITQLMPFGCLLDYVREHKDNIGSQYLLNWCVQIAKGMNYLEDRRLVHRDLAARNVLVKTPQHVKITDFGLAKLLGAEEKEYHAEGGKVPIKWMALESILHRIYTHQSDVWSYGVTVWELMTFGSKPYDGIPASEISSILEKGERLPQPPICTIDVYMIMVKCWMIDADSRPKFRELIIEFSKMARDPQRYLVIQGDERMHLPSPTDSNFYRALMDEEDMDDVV
wild-type BTK, sequence (Q06187 whole entry): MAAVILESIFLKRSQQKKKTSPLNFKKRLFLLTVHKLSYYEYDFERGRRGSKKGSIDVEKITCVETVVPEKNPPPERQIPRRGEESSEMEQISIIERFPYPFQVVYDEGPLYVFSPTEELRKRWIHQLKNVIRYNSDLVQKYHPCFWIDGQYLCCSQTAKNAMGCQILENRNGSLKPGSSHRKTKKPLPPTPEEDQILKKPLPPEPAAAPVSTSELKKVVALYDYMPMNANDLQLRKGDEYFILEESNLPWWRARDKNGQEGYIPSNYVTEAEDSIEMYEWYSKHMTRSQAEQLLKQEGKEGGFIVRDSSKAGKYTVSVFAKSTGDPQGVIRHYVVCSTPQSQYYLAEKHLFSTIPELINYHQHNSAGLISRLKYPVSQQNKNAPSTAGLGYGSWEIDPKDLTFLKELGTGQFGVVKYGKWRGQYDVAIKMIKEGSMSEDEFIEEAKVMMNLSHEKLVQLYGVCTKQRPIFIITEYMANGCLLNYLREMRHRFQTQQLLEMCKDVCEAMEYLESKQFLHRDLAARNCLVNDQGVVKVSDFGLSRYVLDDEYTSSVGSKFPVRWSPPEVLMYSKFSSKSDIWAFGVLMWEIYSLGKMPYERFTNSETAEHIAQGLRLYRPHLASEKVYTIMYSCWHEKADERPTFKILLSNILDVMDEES
T2 sequence (P29597 575-869 limits assumed): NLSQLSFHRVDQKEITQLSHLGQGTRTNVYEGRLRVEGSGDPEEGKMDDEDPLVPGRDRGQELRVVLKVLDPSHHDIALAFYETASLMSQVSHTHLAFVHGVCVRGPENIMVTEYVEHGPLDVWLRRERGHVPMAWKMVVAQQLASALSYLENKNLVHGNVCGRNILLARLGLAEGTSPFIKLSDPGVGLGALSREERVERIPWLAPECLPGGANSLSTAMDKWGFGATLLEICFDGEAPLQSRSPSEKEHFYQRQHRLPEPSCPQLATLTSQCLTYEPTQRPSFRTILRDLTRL
T6 sequence (P00519 whole entry F317L): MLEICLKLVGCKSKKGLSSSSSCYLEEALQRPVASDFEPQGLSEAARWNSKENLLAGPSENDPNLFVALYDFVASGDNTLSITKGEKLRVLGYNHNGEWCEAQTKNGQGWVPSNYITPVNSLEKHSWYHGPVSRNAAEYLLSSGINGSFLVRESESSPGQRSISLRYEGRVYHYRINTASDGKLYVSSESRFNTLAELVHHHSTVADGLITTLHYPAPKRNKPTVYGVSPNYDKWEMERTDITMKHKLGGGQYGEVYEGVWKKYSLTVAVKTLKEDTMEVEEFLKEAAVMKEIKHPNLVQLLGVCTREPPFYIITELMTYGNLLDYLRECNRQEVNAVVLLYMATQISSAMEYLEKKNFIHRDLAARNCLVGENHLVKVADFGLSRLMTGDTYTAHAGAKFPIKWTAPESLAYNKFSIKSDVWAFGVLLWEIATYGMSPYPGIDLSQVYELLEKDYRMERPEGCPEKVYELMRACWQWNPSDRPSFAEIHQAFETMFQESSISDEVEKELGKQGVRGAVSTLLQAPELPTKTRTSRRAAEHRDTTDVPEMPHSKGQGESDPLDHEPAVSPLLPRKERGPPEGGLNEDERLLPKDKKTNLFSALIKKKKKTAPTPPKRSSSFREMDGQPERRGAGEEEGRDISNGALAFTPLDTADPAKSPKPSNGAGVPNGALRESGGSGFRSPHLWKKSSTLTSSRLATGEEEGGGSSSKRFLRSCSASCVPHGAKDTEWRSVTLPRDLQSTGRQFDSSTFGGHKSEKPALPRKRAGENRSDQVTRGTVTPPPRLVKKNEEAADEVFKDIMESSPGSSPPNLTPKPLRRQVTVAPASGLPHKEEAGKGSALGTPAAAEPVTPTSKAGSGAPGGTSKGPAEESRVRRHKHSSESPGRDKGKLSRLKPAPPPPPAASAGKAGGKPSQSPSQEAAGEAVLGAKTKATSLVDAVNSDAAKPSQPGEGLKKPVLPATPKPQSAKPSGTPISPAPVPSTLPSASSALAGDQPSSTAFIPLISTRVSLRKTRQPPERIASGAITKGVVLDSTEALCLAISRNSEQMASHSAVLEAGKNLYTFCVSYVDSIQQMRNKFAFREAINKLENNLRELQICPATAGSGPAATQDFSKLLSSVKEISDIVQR
T3 sequence (P07949 29-1114 V804M): as the sequence (P07949 29-1114 V804L) above, with L776M counted along it
T8 sequence (P00533 25-1210 G719C): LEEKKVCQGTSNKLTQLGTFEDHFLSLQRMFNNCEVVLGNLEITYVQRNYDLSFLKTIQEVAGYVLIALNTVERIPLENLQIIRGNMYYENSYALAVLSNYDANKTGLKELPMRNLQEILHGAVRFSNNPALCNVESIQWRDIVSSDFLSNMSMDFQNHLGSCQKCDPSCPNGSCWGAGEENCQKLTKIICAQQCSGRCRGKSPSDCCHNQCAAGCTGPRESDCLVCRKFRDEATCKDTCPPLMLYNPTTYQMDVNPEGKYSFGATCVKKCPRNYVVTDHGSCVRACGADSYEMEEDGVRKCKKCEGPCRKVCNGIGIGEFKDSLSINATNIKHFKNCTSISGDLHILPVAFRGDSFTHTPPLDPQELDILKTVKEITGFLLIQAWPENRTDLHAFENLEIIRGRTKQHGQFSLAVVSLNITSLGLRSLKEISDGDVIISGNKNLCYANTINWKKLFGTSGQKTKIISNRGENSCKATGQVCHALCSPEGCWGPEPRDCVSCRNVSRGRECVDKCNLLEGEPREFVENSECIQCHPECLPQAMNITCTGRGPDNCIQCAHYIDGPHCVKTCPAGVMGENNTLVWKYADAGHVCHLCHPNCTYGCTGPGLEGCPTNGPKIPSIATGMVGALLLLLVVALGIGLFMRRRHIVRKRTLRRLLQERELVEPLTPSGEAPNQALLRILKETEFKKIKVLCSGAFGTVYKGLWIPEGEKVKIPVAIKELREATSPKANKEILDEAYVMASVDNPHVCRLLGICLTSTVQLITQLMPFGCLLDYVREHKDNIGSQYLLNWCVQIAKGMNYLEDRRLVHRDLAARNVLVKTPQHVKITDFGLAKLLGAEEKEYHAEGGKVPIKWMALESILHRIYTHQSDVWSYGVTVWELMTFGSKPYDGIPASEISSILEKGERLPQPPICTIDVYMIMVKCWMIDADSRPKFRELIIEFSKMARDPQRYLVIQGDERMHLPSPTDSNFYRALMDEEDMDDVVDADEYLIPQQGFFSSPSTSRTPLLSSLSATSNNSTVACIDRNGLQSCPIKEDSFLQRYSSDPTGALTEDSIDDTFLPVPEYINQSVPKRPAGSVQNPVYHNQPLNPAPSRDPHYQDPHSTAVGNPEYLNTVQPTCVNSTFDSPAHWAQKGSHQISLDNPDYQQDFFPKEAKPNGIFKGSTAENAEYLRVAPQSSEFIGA

Row | Compound | remaining binding at 1 µM (EPHB4; @1000nM, read-out: %Control) | remaining binding at 1 µM (EPHB4; read-out: %Control @1000nM) | remaining binding at 1 µM ([1]; @1000nM, read-out: %Control) | remaining binding at 1 µM ([1]; read-out: %Control @1000nM) | remaining binding at 1 µM (RET(V804M); @1000nM, read-out: %Control) | remaining binding at 1 µM (RET(V804M); read-out: %Control @1000nM) | remaining binding at 1 µM (TXK; @1000nM, read-out: %Control) | remaining binding at 1 µM (TXK; read-out: %Control @1000nM) | %Control @1000nM (FLT3(ITD,D835V)) | %Control (FLT3(ITD,D835V)) | remaining binding at 1 µM (ALK(L1196M); @1000nM, read-out: %Control) | remaining binding at 1 µM (ALK(L1196M); read-out: %Control @1000nM) | remaining binding at 1 µM ([2]; @1000nM, read-out: %Control) | remaining binding at 1 µM ([2]; read-out: %Control @1000nM) | difference in %Control from compound Ib at 1 µM (EPHB4; @1000nM) | difference in %Control versus Ib at 1 µM ([1]; @1000nM) | difference in %Control versus compound Ib at 1 µM ([3]; @1000nM) | remaining binding at 1 µM ([3]; @1000nM, read-out: %Control) | remaining binding at 1 µM ([3]; read-out: %Control @1000nM) | difference in %Control vs compound Ib at 1 µM (EGFR(G719C); @1000nM) | other results
1 | C=CC(=O)N1CCC[C@@H](n2nc(-c3ccc(Oc4ccccc4)cc3)c3c(N)ncnc32)C1 [Compound 1g, Ibrutinib, reference compound] | 100% | 100% | 88% | 88% | 100% | 100% | 8.7% | 8.7% | 77% | 77% | 100% | 100% | 32% | 32% | – | – | – | – | – | – | –
2 | Cc1cnc(S(C)(=O)=O)nc1N1CCCC(n2nc(-c3ccc(Oc4ccccc4)cc3)c3c(N)ncnc32)C1 (stereo not drawn) [Compound 8a, 1-(1-(5-Methyl-2-(methylsulfonyl)pyrimidin-4-yl)piperidin-3-yl)-3-(4-phenoxyphenyl)-1H-pyrazolo[3,4-d]pyrimidin-4-amine] | 100% | 100% | 92% | 92% | 93% | 93% | 14% | 14% | 78% | 78% | 95% | 95% | 76% | 76% | 0% | 4% | 79.9% | 83% | 83% | 32.9% | remaining binding at 1 µM (EGFR(G719C); @1000nM, read-out: %Control): 34%; remaining binding at 1 µM (EGFR(G719C); read-out: %Control @1000nM): 34%; IC50 (wild-type BTK): 8 ± 9 nM; NanoBRET IC50 (wild-type BTK): low to subnanomolar; % difference (compound - Ib %Control) (FLT3(ITD,D835V)): 1%; remaining binding at 1 µM (RET(V804L); @1000nM, read-out: %Control): 89%; remaining binding at 1 µM (RET(V804L); read-out: %Control @1000nM): 89%; difference in % of control vs compound Ib at 1 µM (ALK(L1196M); @1000nM): -5%; difference in % of control binding versus compound Ib at 1 µM ([2]; @1000nM): 44%
3 | COC(=O)c1cnc(S(C)(=O)=O)nc1N1CCCC(n2nc(-c3ccc(Oc4ccccc4)cc3)c3c(N)ncnc32)C1 (stereo not drawn) [Compound 8b, Methyl 4-(3-(4-Amino-3-(4-phenoxyphenyl)-1H-pyrazolo[3,4-d]pyrimidin-1-yl)piperidin-1-yl)-2-(methylsulfonyl)pyrimidine-5-carboxylate] | 98% | 98% | 96% | 96% | 90% | 90% | 11% | 11% | 93% | 93% | 92% | 92% | 70% | 70% | -2% | 8% | 69.9% | 73% | 73% | 1.7% | remaining binding at 1 µM (EGFR(G719C); @1000nM, read-out: %Control): 2.8%; remaining binding at 1 µM (EGFR(G719C); read-out: %Control @1000nM): 2.8%; IC50 (wild-type BTK): 38 ± 6 nM; % difference (compound - Ib %Control) (FLT3(ITD,D835V)): 16%; remaining binding at 1 µM (RET(V804L); @1000nM, read-out: %Control): 90%; remaining binding at 1 µM (RET(V804L); read-out: %Control @1000nM): 90%; difference in % of control vs compound Ib at 1 µM (ALK(L1196M); @1000nM): -8%; difference in % of control binding versus compound Ib at 1 µM ([2]; @1000nM): 38%
4 | CCOC(=O)c1cnc(S(C)(=O)=O)nc1N1CCC[C@@H](n2nc(-c3ccc(Oc4ccccc4)cc3)c3c(N)ncnc32)C1 [Compound 8c, Ethyl (R)-4-(3-(4-Amino-3-(4-phenoxyphenyl)-1H-pyrazolo[3,4-d]pyrimidin-1-yl)piperidin-1-yl)-2-(methylsulfonyl)pyrimidine-5-carboxylate] | 86% | 86% | 100% | 100% | 100% | 100% | 12% | 12% | 69% | 69% | 77% | 77% | 90% | 90% | -14% | 12% | 63.9% | 67% | 67% | 6.4% | remaining binding at 1 µM (EGFR(G719C); @1000nM, read-out: %Control): 7.5%; remaining binding at 1 µM (EGFR(G719C); read-out: %Control @1000nM): 7.5%; % difference (compound - Ib %Control) (FLT3(ITD,D835V)): -8%; remaining binding at 1 µM (RET(V804L); @1000nM, read-out: %Control): 100%; remaining binding at 1 µM (RET(V804L); read-out: %Control @1000nM): 100%; difference in % of control vs compound Ib at 1 µM (ALK(L1196M); @1000nM): -23%; difference in % of control binding versus compound Ib at 1 µM ([2]; @1000nM): 58%
5 | CNC(=O)c1cnc(S(C)(=O)=O)nc1N1CCCC(n2nc(-c3ccc(Oc4ccccc4)cc3)c3c(N)ncnc32)C1 (stereo not drawn) [Compound 8d, 4-(3-(4-Amino-3-(4-phenoxyphenyl)-1H-pyrazolo[3,4-d]pyrimidin-1-yl)piperidin-1-yl)-N-methyl-2-(methylsulfonyl)pyrimidine-5-carboxamide] | 100% | 100% | 96% | 96% | 100% | 100% | 10% | 10% | 70% | 70% | 79% | 79% | 54% | 54% | 0% | 8% | 48.9% | 52% | 52% | -0.45% | remaining binding at 1 µM (EGFR(G719C); @1000nM, read-out: %Control): 0.65%; remaining binding at 1 µM (EGFR(G719C); read-out: %Control @1000nM): 0.65%; NanoBRET IC50 (wild-type BTK): low to subnanomolar; % difference (compound - Ib %Control) (FLT3(ITD,D835V)): -7%; remaining binding at 1 µM (RET(V804L); @1000nM, read-out: %Control): 93%; remaining binding at 1 µM (RET(V804L); read-out: %Control @1000nM): 93%; difference in % of control vs compound Ib at 1 µM (ALK(L1196M); @1000nM): -21%; difference in % of control binding versus compound Ib at 1 µM ([2]; @1000nM): 22%
